Where two headings read alike, the source gives them in different places.
Columns and labels:
Experiment in all cases: LPS-stimulated whole bovine blood assay, MSD cytokine detection
Type in all cases: cell-based
[1] = system: TNF-α; settings: LPS-stimulated bovine whole blood, read-out: TNF-α (IC50 μM)
[2] = system: IL-6; settings: LPS-stimulated bovine whole blood, read-out: IL-6 (IC50 μM)
Source text: In order to correlate RNA sequencing data to cytokine changes the whole blood assay was utilized. […] The enhancement result represents an overall stimulation of cytokine levels due to cellular stress or potential toxicity with increasing concentrations of the compound, representing a typical bell shape response curve for immunomodulatory activity.

[3] = system: IL-1β; settings: overstimulation of IL-1β, LPS-stimulated bovine whole blood

Compound	IC50 ([1]; Bos taurus)	IC50 ([2]; Bos taurus)	IL-1β OS of LPS [3]	IC50 [1]	IC50 [2]
CCCNC[C@]1(O)[C@H](C)O[C@@H](O[C@H]2[C@H](C)[C@@H](O[C@@H]3O[C@H](C)C[C@H](N(Cc4cccnc4)C(=O)N(C)c4ccccc4)[C@H]3O)[C@](C)(O)C[C@@H](C)CN[C@H](C)[C@@H](O)[C@](C)(O)[C@@H](CC)OC(=O)[C@@H]2C)C[C@@]1(C)OC [Example H-71, 1-((2S,3R,4S,6R)-2-(((2R,3S,4R,5R,8R,10R,11R,12S,13S,14R)-2-ethyl-3,4,10-trihydroxy-13-(((2R,4R,5S,6S)-5-hydroxy-4-methoxy-4,6-dimethyl-5-((propylamino)methyl)tetrahydro-2H-pyran-2-yl)oxy)-3,5,8,10,12,14-hexamethyl-15-oxo-1-oxa-6-azacyclopentadecan-11-yl)oxy)-3-hydroxy-6-methyltetrahydro-2H-pyran-4-yl)-3-methyl-3-phenyl-1-(pyridin-3-ylmethyl)urea]	32 µM	35 µM	16 µM	–	–
CC[C@H]1OC(=O)[C@H](C)[C@@H](O[C@H]2C[C@@](C)(OC)[C@](O)(CN3CCN(C)CC3)[C@H](C)O2)[C@H](C)[C@@H](O[C@@H]2O[C@H](C)C[C@H](N(C)C(N)=O)[C@H]2O)[C@](C)(O)C[C@@H](C)CN[C@H](C)[C@@H](O)[C@]1(C)O [Example J-5, 1-((2S,3R,4S,6R)-2-(((2R,3S,4R,5R,8R,10R,11R,12S,13S,14R)-2-ethyl-3,4,10-trihydroxy-13-(((2R,4R,5S,6S)-5-hydroxy-4-methoxy-4,6-dimethyl-5-((4-methylpiperazin-1-yl)methyl)tetrahydro-2H-pyran-2-yl)oxy)-3,5,8,10,12,14-hexamethyl-15-oxo-1-oxa-6-azacyclopentadecan-11-yl)oxy)-3-hydroxy-6-methyltetrahydro-2H-pyran-4-yl)-1-methylurea]	> 500 µM	> 500 µM	>500 µM	–	–
CCCNC[C@]1(O)[C@H](C)O[C@@H](O[C@H]2[C@H](C)[C@@H](O[C@@H]3O[C@H](C)C[C@H](N(C)C(=O)N(C)c4ccccn4)[C@H]3O)[C@](C)(O)C[C@@H](C)CN[C@H](C)[C@@H](O)[C@](C)(O)[C@@H](CC)OC(=O)[C@@H]2C)C[C@@]1(C)OC [Example H-45, 1-((2S,3R,4S,6R)-2-(((2R,3S,4R,5R,8R,10R,11R,12S,13S,14R)-2-ethyl-3,4,10-trihydroxy-13-(((2R,4R,5S,6S)-5-hydroxy-4-methoxy-4,6-dimethyl-5-((propylamino)methyl)tetrahydro-2H-pyran-2-yl)oxy)-3,5,8,10,12,14-hexamethyl-15-oxo-1-oxa-6-azacyclopentadecan-11-yl)oxy)-3-hydroxy-6-methyltetrahydro-2H-pyran-4-yl)-1,3-dimethyl-3-(pyridin-2-yl)urea]	109 µM	130 µM	250 µM	–	–
CC[C@H]1OC(=O)[C@H](C)[C@@H](O[C@H]2C[C@@](C)(OC)[C@H](O)[C@H](C)O2)[C@H](C)[C@@H](O[C@@H]2O[C@H](C)C[C@H](N(C)C(=O)N(C)c3ccc(C(F)(F)F)cc3)[C@H]2O)[C@](C)(O)C[C@@H](C)CN[C@H](C)[C@@H](O)[C@]1(C)O [Example B-2a, 1-((2S,3R,4S,6R)-2-(((2R,3S,4R,5R,8R,10R,11R,12S,13S,14R)-2-ethyl-3,4,10-trihydroxy-13-(((2R,4R,5R,6S)-5-hydroxy-4-methoxy-4,6-dimethyltetrahydro-2H-pyran-2-yl)oxy)-3,5,8,10,12,14-hexamethyl-15-oxo-1-oxa-6-azacyclopentadecan-11-yl)oxy)-3-hydroxy-6-methyltetrahydro-2H-pyran-4-yl)-1,3-dimethyl-3-(4-(trifluoromethyl)phenyl)urea]	9 µM	23 µM	16 µM	–	–
CC[C@H]1OC(=O)[C@H](C)[C@@H](O[C@H]2C[C@@](C)(OC)[C@H](O)[C@H](C)O2)[C@H](C)[C@@H](O[C@@H]2O[C@H](C)C[C@H](N(C)C(=O)N(C)c3ccccc3)[C@H]2O)[C@](C)(O)C[C@@H](C)CN[C@H](C)[C@@H](O)[C@]1(C)O [Example B-3a, 1-((2S,3R,4S,6R)-2-(((2R,3S,4R,5R,8R,10R,11R,12S,13S,14R)-2-ethyl-3,4,10-trihydroxy-13-(((2R,4R,5R,6S)-5-hydroxy-4-methoxy-4,6-dimethyltetrahydro-2H-pyran-2-yl)oxy)-3,5,8,10,12,14-hexamethyl-15-oxo-1-oxa-6-azacyclopentadecan-11-yl)oxy)-3-hydroxy-6-methyltetrahydro-2H-pyran-4-yl)-1,3-dimethyl-3-phenylurea]	12 µM	26 µM	16 µM	–	–
CC[C@H]1OC(=O)[C@H](C)[C@@H](O[C@H]2C[C@@](C)(OC)[C@](O)(CN3CCN(C)CC3)[C@H](C)O2)[C@H](C)[C@@H](O[C@@H]2O[C@H](C)C[C@H](N(C)C(=O)Nc3cccnc3)[C@H]2O)[C@](C)(O)C[C@@H](C)CN[C@H](C)[C@@H](O)[C@]1(C)O [Example J-8, 1-((2S,3R,4S,6R)-2-(((2R,3S,4R,5R,8R,10R,11R,12S,13S,14R)-2-ethyl-3,4,10-trihydroxy-13-(((2R,4R,5S,6S)-5-hydroxy-4-methoxy-4,6-dimethyl-5-((4-methylpiperazin-1-yl)methyl)tetrahydro-2H-pyran-2-yl)oxy)-3,5,8,10,12,14-hexamethyl-15-oxo-1-oxa-6-azacyclopentadecan-11-yl)oxy)-3-hydroxy-6-methyltetrahydro-2H-pyran-4-yl)-1-methyl-3-(pyridin-3-yl)urea]	> 500 µM	> 500 µM	>500 µM	–	–
CC[C@H]1OC(=O)[C@H](C)[C@@H](O[C@H]2C[C@@](C)(OC)[C@](O)(CNCC3CCN(C)CC3)[C@H](C)O2)[C@H](C)[C@@H](O[C@@H]2O[C@H](C)C[C@H](N(C)C(=O)N(C)c3ccccc3)[C@H]2O)[C@](C)(O)C[C@@H](C)CN[C@H](C)[C@@H](O)[C@]1(C)O [Example H-30, 1-((2S,3R,4S,6R)-2-(((2R,3S,4R,5R,8R,10R,11R,12S,13S,14R)-2-ethyl-3,4,10-trihydroxy-13-(((2R,4R,5S,6S)-5-hydroxy-4-methoxy-4,6-dimethyl-5-((((1-methylpiperidin-4-yl)methyl)amino)methyl)tetrahydro-2H-pyran-2-yl)oxy)-3,5,8,10,12,14-hexamethyl-15-oxo-1-oxa-6-azacyclopentadecan-11-yl)oxy)-3-hydroxy-6-methyltetrahydro-2H-pyran-4-yl)-1,3-dimethyl-3-phenylurea]	250 µM	> 250 µM	250 µM	–	–
CCCNC[C@]1(O)[C@H](C)O[C@@H](O[C@H]2[C@H](C)[C@@H](O[C@@H]3O[C@H](C)C[C@H](N(C)C(=O)N(C)c4cncnc4)[C@H]3O)[C@](C)(O)C[C@@H](C)CN[C@H](C)[C@@H](O)[C@](C)(O)[C@@H](CC)OC(=O)[C@@H]2C)C[C@@]1(C)OC [Example H-50, 1-((2S,3R,4S,6R)-2-(((2R,3S,4R,5R,8R,10R,11R,12S,13S,14R)-2-ethyl-3,4,10-trihydroxy-13-(((2R,4R,5S,6S)-5-hydroxy-4-methoxy-4,6-dimethyl-5-((propylamino)methyl)tetrahydro-2H-pyran-2-yl)oxy)-3,5,8,10,12,14-hexamethyl-15-oxo-1-oxa-6-azacyclopentadecan-11-yl)oxy)-3-hydroxy-6-methyltetrahydro-2H-pyran-4-yl)-1,3-dimethyl-3-(pyrimidin-5-yl)urea]	> 250 µM	> 250 µM	>250 µM	–	–
CC[C@H]1OC(=O)[C@H](C)[C@@H](O[C@H]2C[C@@](C)(OC)[C@](O)(CN3CCN(C)CC3)[C@H](C)O2)[C@H](C)[C@@H](O[C@@H]2O[C@H](C)C[C@H](N(C)C(=O)NC3CCCCC3)[C@H]2O)[C@](C)(O)C[C@@H](C)CN[C@H](C)[C@@H](O)[C@]1(C)O [Example J-1, 3-cyclohexyl-1-((2S,3R,4S,6R)-2-(((2R,3S,4R,5R,8R,10R,11R,12S,13S,14R)-2-ethyl-3,4,10-trihydroxy-13-(((2R,4R,5S,6S)-5-hydroxy-4-methoxy-4,6-dimethyl-5-((4-methylpiperazin-1-yl)methyl)tetrahydro-2H-pyran-2-yl)oxy)-3,5,8,10,12,14-hexamethyl-15-oxo-1-oxa-6-azacyclopentadecan-11-yl)oxy)-3-hydroxy-6-methyltetrahydro-2H-pyran-4-yl)-1-methylurea]	70 µM	250 µM	200 µM	–	–
1-((2S,3R,4S,6R)-2-(((2R,3S,4R,5R,8R,10R,11R,12S,13S,14R)-13-(((2R,4R,5S,6S)-5-(ethoxymethyl)-5-hydroxy-4-methoxy-4,6-dimethyltetrahydro-2H-pyran-2-yl)oxy)-2-ethyl-3,4,10-trihydroxy-3,5,8,10,12,14-hexamethyl-15-oxo-1-oxa-6-azacyclopentadecan-11-yl)oxy)-3-hydroxy-6-methyltetrahydro-2H-pyran-4-yl)-1,3-dimethyl-3-phenylurea [Example C-2]	–	–	100 µM	200 µM	100 µM
CCCNC[C@]1(O)[C@H](C)O[C@@H](O[C@H]2[C@H](C)[C@@H](O[C@@H]3O[C@H](C)C[C@H](NCC(C)C)[C@H]3Oc3ccccc3)[C@](C)(O)C[C@@H](C)CN[C@H](C)[C@@H](O)[C@](C)(O)[C@@H](CC)OC(=O)[C@@H]2C)C[C@@]1(C)OC [E-155]	–	–	6 µM	8 µM	8 µM
